Data from ChEMBL document CHEMBL6114939, “Identification of Dual Inhibitors Targeting Main Protease (Mpro) and Cathepsin L as Potential Anti-SARS-CoV-2 Agents” (ACS Med Chem Lett, 2024).

Experiment: Antiviral activity against SARS-CoV-2 infected in human Huh-7 cells overexpressing human ACE2 pre-infected with cells for 1 hr followed by compound addition and measured 23 hrs post infection by virus plaque assay
Assay type: functional, cell-based

Question: Which EC50 does the source give for `CC(=O)/C=C/[C@H](C[C@@H]1CCNC1=O)NC(=O)[C@H](CC1CC1)NC(=O)c1ccccc1F` here?
Answer: Its EC50 is 10.3 µM.

Question: With `CC(=O)/C=C/[C@H](C[C@@H]1CCNC1=O)NC(=O)[C@H](CC(C)C)NC(=O)c1ccc(F)cc1` as the compound, how does the EC50 read?
Answer: Its EC50 is 7.63 µM.

Question: Which EC50 does the source give for `CC(=O)/C=C/[C@H](C[C@@H]1CCNC1=O)NC(=O)[C@H](CC(C)(C)C)NC(=O)c1ccc(F)cc1` here?
Answer: Its EC50 is 3.5 µM.
